Earlier results, collected in patent publication US20170273596A1, “METHOD FOR MONITORING SWALLOWING” (NESTEC S.A., priority 2014, published 2017).

Legend:
[1] = database Episuite 4.1
[2] = database Episuite 4.1; remark: listed apart in the source

| Volatility: Air/water partition coefficient log K [w/v] [1] | Lipophilicity: Oil/Water partition coefficient log Kow [w/v] [2] | Compound |
| --- | --- | --- |
| −2.31 |  | 2-Methylpropanal |
| −5.09 | −1.34 | CC(=O)C(C)=O [2,3-Butanedione] |
| −4.97 | −0.85 | CCC(=O)C(C)=O [2,3-Pentanedione] |
| −2.20 | 1.23 | CCC(C)C=O (stereo not drawn) [2-Methylbutanal] |
| −2.19 | 1.23 | CC(C)CC=O [3-Methylbutanal] |
| −2.56 | −0.17 | CC=O [Acetaldehyde] |
| −1.49 | 0.92 | CSC [Dimethylsulfide] |
| −1.79 | 1.85 | CCCC(=O)OCC [Ethylbutyrate] |
| −8.47 | 1.05 | COc1cc(C=O)ccc1O [Vanillin] |

| Compound | Volatility: Air/water partition coefficient log K [w/v] [1] | Lipophilicity: Oil/Water partition coefficient log Kow [w/v] [2] |
| --- | --- | --- |
| C=C(C)[C@H]1CC=C(C)CC1 [Limonene] | 0.12 | 4.38 |
| CS [Methanethiol] | −0.97 | 0.78 |
